# System: central and endosteal BM LSK and LSKSLAM cells
# Assay: In vitro R-BC154 binding to murine bone marrow cells
# Format: cell-based, mouse
# Protocol: For lineage analysis, cells were stained separately for T-cells using anti-CD3, B-cells using anti-B220, macrophages using anti-Mac-1 and granulocytes using anti-Gr-1. Alternatively, lineage analysis was also performed using a cocktail containing anti-CD3/B220 (PB conjugated) and anti-B220/Gr1/Mac-1 (AF647 conjugated), whereby B220^+ cells were identified as +/+ cells, CD^3+ cells are +/− and Gr1/Mac-1^+ cells are −/+ populations. For analysis of human WBC from cord blood MNCs or BM and PB from humanised NSG mice, cells were immunolabelled with a lineage cocktail containing anti-huCD3/CD14/CD15 (all AF488 conjugated), anti-CD14/CD15/CD19/CD20 (all AF647 conjugated), anti-huCD45-PB, anti-muCD45-BV510 and anti-huCD34-PECy7. A full list of conjugated antibodies used is detailed in Table 1 and 2.
# Populations of endosteal and central murine bone marrow cells were isolated as previously described in J. Grassinger, et al Cytokine, 2012, 58, 218-225 and D. N. Haylock et al Stem Cells, 2007, 25, 1062-1069. Briefly, one femur, tibia and iliac bone were excised and cleaned of muscle. After removing the epi- and metaphyseal regions, bones were flushed with PBS-2% FBS to obtain central bone marrow cells. Flushed long bones and epi- and metaphyseal fragments were pooled and crushed using a mortar and pestle. Bone fragments were digested with Collagenase I (3 mg/ml) and Dispase II (4 mg/ml) at 37° C. in an orbital shaker at 750 rpm. After 5 min, bone fragments were washed once with PBS and once with PBS 2% FBS to collect the endosteal bone marrow cells. Peripheral blood was collected by retro-orbital puncture and red blood cells were lysed using NH4Cl lysis buffer for 5 min at room temperature. Isolated cell populations were washed with PBS 2% FBS and then stained for flow cytometry as described in Antibody Cocktails above.
# Cells were washed with cold PBS (2% F BS) and then immunolabelled as described in “Antibody Cocktails” prior to flow cytometric analysis.
smiles,measurement,setting,value
CCN(CC)c1ccc2c(-c3ccc(S(=O)(=O)NCc4cn(C5CC(C(=O)NC(Cc6ccc(OC(=O)N7CCCC7)cc6)C(=O)O)N(S(=O)(=O)c6ccccc6)C5)nn4)cc3S(=O)(=O)[O-])c3ccc(=[N+](CC)CC)cc-3oc2c1 (centres unmarked) [R-BC154],binding to central versus endosteal LSK and LSKSLAM,1 mM Ca2+/Mg2+,greater binding to central LSK and LSKSLAM
same,binding to HSC and progenitors on co-treatment with EDTA,10 mM EDTA (deactivating),completely abolished activity
same,binding to α4−/−/α9−/− LSK and LSKSLAM cells,BM cells of α4flox/flox α9flox/flox vav-cre mice,essentially absent
same,binding to lineage committed lymphoid and myeloid progeny relative to LSKSLAM and LSK,"exogenous activation, central and endosteal BM",significantly lower
same,binding to LSK cells in the absence of activating cations and EDTA,"no cations, no EDTA",binding to endosteal LSK cells was still evident but not to central LSK
